Test results: paper PMC7442133, “Reduced treatment frequencies with bumped kinase inhibitor 1369 are effective against porcine cystoisosporosis” (International Journal for Parasitology: Drugs and Drug …, 2020)

Assays:
[1] = Fecal drug kinetics: BKI concentrations in pooled feces by LC-MS/MS; assay type: in vivo, piglets
Protocol: Additionally, to determine exposure to BKI 1369 and its metabolites, BKI 1318 and BKI 1817, pooled fecal samples per group were collected before treatment (−24 h), 2, 24 and 48 h after treatment and at the end of the study (SD 29; experiment I). Approximately 1 g of feces was soaked overnight in 3 ml phosphate buffered saline (PBS, pH 7.4). The following day, 12 ml of acetonitrile containing 100 μM propanolol as an internal standard was added and the mixture was thoroughly vortexed and centrifuged at 1000×g for 30 min. Clear supernatant was then transferred to Eppendorf tubes and concentrated in a miVac® Duo Concentrator (SP Scientific, Pennsylvania, USA) at 35 °C. Control/blank samples spiked with known amounts of target analyte were processed in tandem to provide a standard curve. The concentrated samples were shipped to the University of Washington and were stored at −20 °C until analysis by liquid chromatography-tandem mass spectrometry (LC-MS/MS) to determine fecal pharmacokinetics. All LC-MS/MS analyses were carried out on a Waters Acquity UPLC coupled with a Xevo TQS Micro and analyzed using MassLynx software (Waters Corporation, Milford, MA, USA). Extraction and LC-MS/MS conditions are described in detail in the Supplementary File S1.
Tissue and feces from vehicle control treated piglets were used as blanks or standards. Calibration curves for BKI 1369, BKI 1318, and BKI 1817 were prepared by adding 2 μL BKI in dimethylsulfoxide (DMSO) to 18 μL tissue or feces controls to generate nominal concentrations of 0.004, 0.008, 0.02, 0.04, 0.08, 0.2, 0.4, 0.8, 2, 5, 10, and 20 μM. Calibration curves were generated separately for each tissue type and feces.
5 μL of tissue homogenate curves and samples were added to tubes that contained 95 μL of 80:20 acetonitrile: water. As an internal standard, propranolol was added to each sample to a final concentration of 20 nM. Samples were dried to completion using a miVac Duo Concentrator (SP Scientific, Pennsylvania, USA) at 35 °C. Sample processing for feces was similar but utilized a slightly different process to concentrate the sample as explained in the methods. Dried Samples were sealed and shipped to the University of Washington for LC-MS/MS analysis.

C. suis merozoites = assay: Merozoite replication (growth) inhibition in infected IPEC-1 cultures, free merozoites counted 9 dpi; assay type: cell-based, Cystoisospora suis; settings: 400 nM once at 2 dpi; vs DMSO-only and no-treatment controls
Protocol: The laboratory strain C. suis Wien I ([Joachim and Mundt, 2011]), was maintained by passage in suckling piglets every 3–6 months and infectivity in vivo was assessed regularly at the Institute of Parasitology, University of Veterinary Medicine, Vienna. Oocysts were purified from collected feces, brought to sporulation and stored as described elsewhere ([Worliczek et al., 2013]). For in vitro studies, sporozoites were excysted ([Worliczek et al., 2013]), enumerated with a hemocytometer and used immediately for infection of semi-permanent intestinal porcine epithelial cells (IPEC-1). For in vivo studies, sporulated oocysts were washed with tap water and enumerated prior to infection of piglets.
IPEC-1 cells were maintained in culture medium at 37 °C and 5% CO2 (DHEM/HAM12 supplemented with 5% fetal calf serum and penicillin/streptomycin; Gibco via Thermo Fisher, Vienna, Austria). Cells (4 × 10^4) were used to seed 24-well plates and grown to confluence. All BKI compounds were stored as 20 mM stock solutions in 100% dimethyl sulfoxide (DMSO) at −20 °C. Cell viability in the presence of DMSO and BKIs was determined by colorimetric cell proliferation (WST-1) assays ([Shrestha et al., 2019]). In addition IPEC-1 cells were infected with serial dilutions of C. suis sporozoites, obtained after excystation to evaluate the growth curves of merozoites during 5–9 days of cultivation. To determine the effect of BKI 1369 on parasite replication, sporozoites (5 × 10^2) were added to each well one day after seeding of host cells and incubated with different concentrations of BKI 1369 at 40 °C for various time periods or a DMSO control, in triplicate.
In order to test whether BKI 1369 affects initial host cell invasion by C. suis, freshly excysted sporozoites were pre-incubated with BKI 1369 or DMSO for 6 h at 37 °C. Subsequently, sporozoites were washed with medium and used for infection of cell monolayers (5 × 10^2/well), in triplicate. Readout for both growth (merozoite replication) and invasion-inhibition experiments was microscopical evaluation by counting free merozoites 9 days post-infection (dpi) from culture supernatants. Supernatants were collected and free merozoites were counted in pooled samples at 9 dpi from quadruplicate wells in C-Chip disposable hemocytometers (NanoEnTek/Roth Lactan, Graz, Austria). All assays included DMSO and no-treatment controls in quadruplicate.
Statistical calculations for in vivo trials were performed with RStudio version 1.1.453 (RStudio Team, 2018), descriptive statistics with Microsoft Excel 2010 (Microsoft Inc., Vienna, Austria) and GraphPad Prism version 5.04 for Windows (GraphPad Software, San Diego, California USA). Differences in clinical and parasitological parameters between groups were analyzed with ANOVA in the case of normal distribution and variance homogeneity of the data, or a Kruskal-Wallis rank sum test if this was not the case. In the event of significance for the omnibus tests, parametric or non-parametric post-hoc tests for multiple comparisons were performed (according to Tukey and Conover, respectively), with P-value adjustment after Bonferroni. In vitro assays were evaluated by t-tests with significance reported at P < 0.05. For testing of efficacy in vitro, the percentage of growth/invasion inhibition was calculated as follows: % inhibition = (1−No. of merozoites counted at 9 dpi in BKI 1369 treated culture /No. of merozoites counted at 9 dpi in DMSO-only treated culture)x100

Concentration in pooled fecal samples ([1]; Group A (20 mg BKI 1369/kg BW; 0 dpi), SD 2, −24 h (before treatment)): 0.0 µM
Concentration in pooled fecal samples ([1]; Group A (20 mg BKI 1369/kg BW; 0 dpi), SD 3, 2 h post first-dose): 0.0 µM
Concentration in pooled fecal samples ([1]; Group A (20 mg BKI 1369/kg BW; 0 dpi), SD 4, 24 h post first-dose): 54.0 µM
Concentration in pooled fecal samples ([1]; Group A (20 mg BKI 1369/kg BW; 0 dpi), SD 5, 48 h post first-dose): 60.8 µM
Concentration in pooled fecal samples ([1]; Group A (20 mg BKI 1369/kg BW; 0 dpi), SD 29, 624 h post first-dose): 0.0 µM
Cmax ([1]; Group A: single treatment 20 mg BKI 1369/kg on SD 3, pooled feces): 60.8 µM
Fecal Tmax ([1]; Group A: single treatment 20 mg BKI 1369/kg on SD 3, pooled feces, post dose): 48 h
Concentration in pooled fecal samples ([1]; Group B (20 mg BKI 1369/kg BW; 2 dpi), SD 4, −24 h (before treatment)): 0.0 µM
Concentration in pooled fecal samples ([1]; Group B (20 mg BKI 1369/kg BW; 2 dpi), SD 5, 2 h post first-dose): 0.0 µM
Concentration in pooled fecal samples ([1]; Group B (20 mg BKI 1369/kg BW; 2 dpi), SD 6, 24 h post first-dose): 0.8 µM
Concentration in pooled fecal samples ([1]; Group B (20 mg BKI 1369/kg BW; 2 dpi), SD 7, 48 h post first-dose): 53.5 µM
Concentration in pooled fecal samples ([1]; Group B (20 mg BKI 1369/kg BW; 2 dpi), SD 29, 576 h post first-dose): 0.0 µM
Fecal Tmax ([1]; Group B: single treatment 20 mg BKI 1369/kg on SD 5, pooled feces, post-dose): 48 h
Concentration in pooled fecal samples ([1]; Group C (20 mg BKI 1369/kg BW; 2 and 4 dpi), SD 4, −24 h (before treatment)): 0.0 µM
Concentration in pooled fecal samples ([1]; Group C (20 mg BKI 1369/kg BW; 2 and 4 dpi), SD 5, 2 h post first-dose): 0.0 µM
Concentration in pooled fecal samples ([1]; Group C (20 mg BKI 1369/kg BW; 2 and 4 dpi), SD 6, 24 h post first-dose): 130.0 µM
Concentration in pooled fecal samples ([1]; Group C (20 mg BKI 1369/kg BW; 2 and 4 dpi), SD 7, 48/2 h post 2nd dose): 280.8 µM
Concentration in pooled fecal samples ([1]; Group C (20 mg BKI 1369/kg BW; 2 and 4 dpi), SD 8, 72/24 h post 2nd dose): 331.6 µM
Concentration in pooled fecal samples ([1]; Group C (20 mg BKI 1369/kg BW; 2 and 4 dpi), SD 9, 96/48 h post 2nd dose): 537.0 µM
Cmax ([1]; Group C: 20 mg BKI 1369/kg on SD 5 and SD 7, pooled feces): 537 µM
Fecal Tmax ([1]; Group C: 20 mg BKI 1369/kg on SD 5 and SD 7, pooled feces, post first-dose): 96 h
Excretion via the feces (in words) ([1]; after oral BKI 1369, piglets): major metabolite excreted in the feces
Compound: CN1CCC(Cn2nc(-c3ccc4nc(O)ccc4c3)c3c(N)ncnc32)CC1 [BKI 1817]
Decrease of total merozoite counts (C. suis merozoites): 69.6%
